Source: paper PMC3480435, “Identification, Expression and Activity Analyses of Five Novel Duck Beta-Defensins” (PLoS ONE, 2012)

Legend:
[1] = system: DHV-1 strain Du/CH/LBJ/090809; settings: DHV-1 serially diluted, treated with equal volume of 300 µg/mL protein in PBS, 37°C 60 min; 11-day-old SPF duck embryos, observed 7 days; three independent experiments, five replicates
Protocol: Briefly, the DHV-1 (10^8 median embryo infectious doses, EID50) was serially diluted 10-fold and treated with equal volumes of GST or rAvBDs (300 µg/mL in PBS) at 37°C for 60 min. The mixture was inoculated into 11-day-old specific pathogen free (SPF) duck embryos, with 200 µL administered per duck. The inoculated duck embryos were incubated at 37°C and observed for 7 days. Mortality was recorded every 8 h. […] All antiviral activity assays were performed in three independent experiments, with five replicates per experiment.

[2] = system: 12 bacteria (four Gram-positive and eight Gram-negative strains); settings: colony counting, 10-100 µg/mL in PBS, 3 h preincubation then 12-18 h; % of CFU of unexposed bacteria; mean of three independent experiments, three replicates each; Fig. 3
Protocol: The antimicrobial activities of both rAvBD and sAvBD were determined by colony counting assay. Briefly, a 10 µL of diluted bacterial culture (diluted 1000-fold in the appropriate medium) was treated with 250 µL of rAvBD or sAvBD (0 to 100 µg/mL in PBS) in polypropylene microtiter plates and preincubated for 3 h at conditions suited to the investigated strain; 100 µL of minimal medium was added after 3 h and the plates were incubated for 12–18 h further. Then, the sample was rediluted 100-to-10^6-fold in minimal medium, transferred to TSA plates and colonies were counted after 24 h of incubation. Bactericidal activity was calculated as a percentage of CFU of bacteria not exposed to antimicrobial peptides but subjected to the same experimental conditions. Results from the antimicrobial assay represent the mean of the three independent experiments, with three replicates per experiment.

glutathione-S-transferase [GST]
survival time of duck embryos inoculated with treated DHV [1]: little effect
bactericidal activity against all of the bacterial strains investigated [2]: no bactericidal activity
